Where two headings read alike, the source gives them in different places.

This note sets out measurements from patent US20100248372A1, “Composition and Method for Modulating Plant Transformation” (priority 2009, published 2010).

The subject of one data set is Arabidopsis thaliana. Description: Homologous recombination (GUS reporter, histochemical staining) in plants grown on supplemented medium. It is filed as in vivo. Conditions: for increase in homologous recombination vs control MS medium: about 3 weeks; for effect on homologous recombination frequency: FIG. 3; for RR (recombination rate): 3-week-old plants. An excerpt: Homologous recombination was detected in plants, in particular Arabidopsis thaliana and tobacco plants, that were transformed with scorable reporter markers, for example, beta-glucuronidase (uidA or GUS). Upon homologous recombination, the marker gene is restored. Homologous recombination events were identified using histochemical staining. […] A recombination substrate generally consists of two non-functional overlapping copies of a GUS gene. Damage to one of the regions of homology may be repaired using the second copy as a template. A simple count of the number of recombination events in a population of plants was used to conduct quantitative analyses of beta-glucuronidase (GUS) activity. The homologous recombination frequency (HRF) was determined by relating the number of blue spots counted which are indicative of […] and then relating that number to the total number of plants scored. The recombination rate (RR) was determined by relating the HRF to the total number of haploid genomes present in the plant.
The total DNA of the transgenic lines was isolated from whole plants at preferably the full rosette stage using a Nucleon™ PhytoPure™ plant DNA extraction kit from Amersham Life Science. DNA may also be isolated from plants at a different development stage. The yield of total DNA measured in one of micrograms per plant or micrograms per plant organ was compared with the known mean DNA content, 0.16 pg of an A. thaliana cell, to give an approximate number of genomes present in plants (Swoboda et al., Mol. Gen. Genet., 1993, 237(1-2): 33-40). The total DNA was isolated from one of all leaves, roots, and stems of 4 plants per each experimental group for each transgenic line. The average DNA content from these samples was used to estimate the number of genomes present.
Tissues were prepared from A. thaliana plants that were germinated and grown for a period of 3 weeks on a medium containing 0, 25, 75, and 100 mM of NaCl. The recombination rate (RR) was calculated by scoring the HRF in separate groups of 3-week-old plants and then relating these numbers to the total number of genomes present in the plants. Each of the calculated values represents the mean value for the RR. […] The “Fold Increase” values shown in Table 1 were calculated by relating the data from plants grown on 25, 75 and 100 mM of NaCL to the data from plants grown in the absence of NaCl.
Plants were germinated and grown on MS medium supplemented with one of 25 mM NaCl, 12.5 mM of Na2SO4, 12.5 mM of MgCl2, and 12.5 mM of MgSO4. Control plants were grown on standard MS medium. […] The data shown is the RR as an average of two independent experiments, each having 200 plants per experimental group.
The effects of KCl on plant transformation were measured using transgenic plants germinated from Arabidopsis line #11 obtained from Prof. Hohn, Friedrich Miescher Institute, Basel, Switzerland. Plants were germinated and grown on a solid or modified MS basal medium in presence of varying quantities of KCl. In order to establish KCl as the single source of potassium in all the modified media, KNO3, normally present in MS media was omitted. Additionally, potassium dihydrogenphosphate (KH2PO4) was replaced with ammonium dihydrogenphosphate (NH4▪H2PO4).

The test system of data set [1] is Nicotiana tabacum. Description: Calli regeneration under hygromycin selection after Agrobacterium transformation of leaves. The note with it: for Calli regenerated and transplanted: died on soil / Calli regenerated and transplanted: total: 20 leaves transformed. It is filed as in vivo. The method, then: Seeds of tobacco cultivar “Big Havana” were surface-sterilized with a solution containing 1% bleach and 0.05% Tween-80, for about 3 minutes and then rinsed twice with sterile distilled water for about 5 minutes. Surface-sterilized seeds were plated in 100 mm Petri dishes on sterile Whatman® filter paper submersed in 4 ml of liquid MS medium containing varying amounts of KCl and the plants were transferred to a growth chamber for germination. Once germinated, the plants were removed from the growth chamber and grown for a period of one week under conditions of 16-hours light, 22° C. and 8-hours dark, 18° C. Three to five one-week-old plants were then removed from the 4-ml liquid medium and were transferred to single sterile glass 250-ml flasks containing 15 ml of sterile liquid MS media supplemented with varying amounts of KCl. Flasks were then installed on shakers at 50-75 rpm. Plants were continuously grown under conditions of 16-hours light, 22° C. and 8-hours dark, 18° C. The growth medium in each flask was replaced weekly with 25 ml of fresh medium. Following a 3-week period, plants were removed from the flasks and 2 to 3 pairs of fully developed fresh leaves about 2-4 cm long were harvested (cut from the plant) for transformation with Agrobacteria.
Experimental groups of tobacco plants were germinated and grown in a liquid medium culture supplemented with varying amounts of KCl. Control plants for the transformation experiments were grown in a standard MS-medium that was not supplemented with KCl.
Four weeks post-germination, the tobacco plants were removed from the liquid medium culture. The leaves from the plants were removed, and several parallel incisions were made along the leaves. The leaves were then vacuum infiltrated with an Agrobacterium suspension culture carrying the plasmid with LUC (gene coding for luciferase) and hygromycin (gene coding for the resistance to hygromycin) genes.
The leaves were vacuum-infiltrated twice for about 5 minutes with the Agrobacterium suspension culture using standard procedures known in the art. Following vacuum-infiltration, the tobacco leaves were dried for about 5 to 10 minutes on sterile Whatman® filter paper to remove substantially all excess Agrobacterium cells. The leaves were then placed on plates containing MS medium, and each of the plates were placed for in a room for a period of 3 day at a temperature of 22° C. and exposed to a daily regime of 16-hours of light and 8-hours of dark.
Leaves from each of the experimental groups grown on the different media compositions having varying amounts of KCL and the controls were washed with sterile water to remove the Agrobacterium suspension. To remove traces of growth medium, leaves were blotted on sterile filter paper and then submersed in a Petri dish laid out with Whatman® filter paper containing re-suspended Agrobacterium cells. Each submersed leaf surface was incised using a sharp surgical blade in parallel along the side veins. The distance between the two parallel incisions was about 5-7 mm. The primary leaf vein and leaf margins were left intact. Once cutting was complete, leaves remained submersed for a period of about 10 minutes. Leaves were then removed from the Petri dish and were blotted dry and placed upside-down on plates of MS medium, and were incubated in a dark room at 22° C. for a period of 3 days. […]
After a period of about 3 to 4 weeks, the numbers of regenerated calli were determined. […]

Data set [2] deals with Nicotiana tabacum. Description: Stable T-DNA integration (LUC expression test of regenerated plantlets). The note with it: for Calli regenerated and transplanted, LUC expression test: LUC negative / Calli regenerated and transplanted, LUC expression test: LUC positive: 20 leaves transformed. The format is in vivo. From the text: The number of transgenic plants, having incorporated a marker gene, regenerated from tobacco calli in various transformation experiments were counted. All the regenerated plants were screened using a luciferase camera. Spraying the transgenic plants with luciferine, the substrate for luciferase enzyme, allowed the identification of transgenic plants expressing the luciferase.
The newly appeared plantlets regenerated from the calli of Example 4 showing evidence of root formation, were excised from the calli and transferred to soil.
Plantlets were sprayed with luciferine, and the total number of luciferase-positive plantlets was scored. This allowed the calculation of the transformation frequency, as the number of plants expressing LUC gene to the number of transformed leaves, shown in FIG. 7.

On to `[Cl-].[K+]` [KCl, potassium chloride], for which, in the data set with Arabidopsis thaliana (modified medium with 18.8 mM KCl), the “increase in homologous recombination vs control MS medium” value (“increase in homologous recombination” below) is 9.3 fold. Further, the “increase in homologous recombination” value in the data set on Arabidopsis thaliana (modified medium with 47 mM KCl) was 15.4 fold. Also, in the data set on Arabidopsis thaliana (modified medium with 94 mM KCl), the “increase in homologous recombination” value was 19.2 fold. In the data set with Nicotiana tabacum [1] (47 mM KCl), the “Calli regenerated and transplanted: died on soil” value was determined as 0; the “Calli regenerated and transplanted: total” value stood at 138. In the data set with Nicotiana tabacum [1] (94 mM KCl), the “Calli regenerated and transplanted: died on soil” value came to 3; the “Calli regenerated and transplanted: total” value is listed as 181. The “increase in number of calli regenerated vs control medium” value in the data set with Nicotiana tabacum [1] (media containing 47 and 94 mM KCl) is reported as 5.9 fold. Further, in the data set with Nicotiana tabacum [2] (47 mM KCl), the “Integration frequency, LUC positive plants/leaf transformed” value was determined as 5.3; the “difference in number of stable transformants vs control media” value came to 5.9 fold; the “Calli regenerated and transplanted, LUC expression test: LUC negative” value is 32; the “Calli regenerated and transplanted, LUC expression test: LUC positive” value came out at 106. Besides, in the data set on Nicotiana tabacum [2] (94 mM KCl), the “Integration frequency, LUC positive plants/leaf transformed” value is listed as 7.2; the “difference in number of stable transformants vs control media” value is 8.0 fold; the “Calli regenerated and transplanted, LUC expression test: LUC negative” value came out at 41; the “Calli regenerated and transplanted, LUC expression test: LUC positive” value was found to be 144. For the same compound, the “effect on plant phenotype / plant biomass” value with Arabidopsis (100 mM KCl in MS medium) was “no decrease in plant biomass was observed”.
In the case of `[Cl-].[Cl-].[Mg+2]` [MgCl2], the “effect on homologous recombination frequency” value in the data set on Arabidopsis thaliana (MS medium + 12.5 mM MgCl2, 21 days post-germination) is recorded as “significantly positive effects”.
Consider `[Cl-].[Na+]` [NaCl], for which the “RR (recombination rate)” value is on record as 12.29 ± 0.18 10^−8 with Arabidopsis thaliana (25 mM NaCl in medium), 22.52 ± 0.34 10^−8 in the data set with Arabidopsis thaliana (75 mM NaCl in medium) and 29.57 ± 0.82 10^−8 in the data set with Arabidopsis thaliana (100 mM NaCl in medium). For the same compound, the “Fold Increase of RR” value in the data set with Arabidopsis thaliana (25 mM NaCl vs plants grown in absence of NaCl) came to 1.64; in the data set with Arabidopsis thaliana (75 mM NaCl vs plants grown in absence of NaCl), 3; in the data set on Arabidopsis thaliana (100 mM NaCl vs plants grown in absence of NaCl), 3.93. For the same compound, the “effect on homologous recombination frequency” value in the data set with Arabidopsis thaliana (MS medium + 25 mM NaCl, 21 days post-germination) is “significantly positive effects”. Besides, in the data set with Arabidopsis thaliana (exposure to 25-100 mM NaCl), the “increase in recombination frequency” value is reported as 2-4 fold. Moreover, the “decrease in plant biomass” value in the data set on Arabidopsis (75 mM NaCl in MS medium) is reported as approximately 20%; in the data set on Arabidopsis (100 mM NaCl in MS medium), approximately 50%.
